Results from publication PMC11432330, “Novel Drug-like HsrA Inhibitors Exhibit Potent Narrow-Spectrum Antimicrobial Activities against Helicobacter pylori” (International Journal of Molecular Sciences, 2024).
Values after ≈ are worked out from the molar mass of the structure shown. “Also recorded” adds a separate entry of the source. Like-named read-outs stand apart in the source and are kept apart here.

What was measured:
[1] = system: response regulator HsrA; assay: EMSA: inhibition of in vitro DNA binding activity of HsrA to promoter PporGDAB; format: biochemical, Helicobacter pylori; conditions: 6 μM HsrA, 120 ng PporGDAB, ligand 0.1-2 mM
Procedure: The DNA binding activities of recombinant HsrA and CosR were assessed in vitro by electrophoretic mobility shift assays (EMSAs). A 300-bp promoter region of the H. pylori 26695 operon porGDAB was used as the target sequence of HsrA in all EMSA experiments. Likewise, a 420-bp sequence of the C. jejuni sodB promoter (ATCC 33560) was used as the target DNA of CosR [90]. The oligonucleotides used for the synthesis of these promoter regions are described in Supplementary Table S4. Response regulators HsrA (6 μM) or CosR (700 nM) were mixed with 120 ng of their target promoters in a reaction buffer of 10 mM bis-Tris (pH 7.5), 40 mM KCl, 100 mg/L BSA, 1 mM DTT, and 5% glycerol. For the in vitro inhibition analyses, mixtures of target DNA and response regulator were exposed to 2, 1, 0.5, and 0.1 mM of each compound of interest, incubated at room temperature for 20 min, and then separated on a 6% non-denaturing electrophoresis. DMSO instead of inhibitors was included as a vehicle control, while an internal sequence of the Anabaena sp. pkn22 gene was used as the non-specific competitor in all assays. For DNA-protein binding visualization, gels were stained with the SYBR Safe DNA gel stain (Invitrogen) and analyzed with a Gel Doc 2000 Image Analyzer (Bio-Rad).

[2] = target: HsrA (Helicobacter pylori, UniProt O25684); assay: Isothermal titration calorimetry (ITC) with HsrA; format: binding; conditions: for ΔG: absolute error 0.1; for ΔH: absolute error 0.4
Procedure: Molecular interactions of the selected ligands with proteins HsrA or CosR were studied by isothermal titration calorimetry (ITC), as previously described. Titrations were assessed in a high-sensitivity MicroCal Auto-iTC200 calorimeter (Malvern Panalytical, Malvern, UK). Experiments were carried out at 25 °C in freshly prepared buffer containing 50 mM Tris-HCl [pH 8], 150 mM NaCl, 10% glycerol, and 1% DMSO. A 20 µM solution of protein was located in the calorimetric cell. Then, a sequence of 19 injections of 2 µL volume each with a 200 µM solution of the corresponding ligand was programmed with a time spacing of 150 s, a stirring speed of 750 rpm, and a reference power of 10 µcal/s in the sample cell. Thermodynamic properties such as binding stoichiometry, dissociation constants, and binding enthalpies were calculated by nonlinear least-squares regression data analysis using Origin 7.0 software.

[3] = system: H. pylori strain ATCC 700392; assay: Time-kill kinetic assay; format: cell-based, Helicobacter pylori; conditions: 4 × MIC, 10^4 CFU/mL
Procedure: Time-kill kinetics of selected HsrA inhibitors were carried out as previously described, with slight modifications. Briefly, fresh grown cells of H. pylori strain ATCC 700392 were resuspended in BHI + FBS at 1.0 × 10^4 CFU/mL and exposed to 4 × MIC of each compound. Bacteria exposed to DMSO (vehicle) instead of the HsrA inhibitors were included as a control. All cultures were incubated at 37 °C under microaerobic conditions, and aliquots were taken after 0, 2, 4, 8, and 24 h of exposure for CFU determination. Experiments were performed twice in triplicate. Results were presented as log10 CFU/mL versus hours of exposure. Differences in H. pylori survival were subjected to statistical analysis by using the Mann–Whitney U test.

[4] = system: H. pylori; assay: MIC across the four H. pylori strains tested (text summaries); format: cell-based, Helicobacter pylori; conditions: for MIC: Helicobacter pylori
Procedure: The antimicrobial activity of the HsrA inhibitors was evaluated by the determination of the minimal inhibitory concentration (MIC) against four different strains of H. pylori: ATCC 700392 (aka 26695), ATCC 43504 (MTZ-resistant reference strain), ATCC 700684 (CLR-resistant reference strain), and Donostia 2 (LVX-resistant clinical isolate). The MICs were determined by the broth microdilution method, as previously described. Briefly, H. pylori strains were grown in blood agar at 37 °C for 72 h under microaerobic conditions. Fresh inoculums adjusted at OD600 = 0.01 [~10^6 colony forming units (CFU) per mL] in BHI broth supplemented with 4% fetal bovine serum (BHI + FBS) were prepared and immediately exposed to final concentrations between 64 and 0.031 mg/L of each compound of interest. The compound solvent (DMSO) as well as conventional antibiotics (MTZ, CLR, LVX) were included as controls. […] Each experiment was performed twice in triplicate. The MIC and MBC values of the selected compounds against C. jejuni ATCC 33560 were determined by using the same method and culture conditions described for the H. pylori strains.

[5] = system: HeLa cells; assay: Cytotoxicity, PrestoBlue cell viability assay; format: cell-based; conditions: for TI (CC50/MIC), therapeutic index: CC50 on HeLa / higher MIC observed against H. pylori
Procedure: (§1) The in vitro toxicity of the selected HsrA inhibitors was determined on HeLa cells by the PrestoBlue^TM assay, as previously described. Briefly, cells were cultured at 37 °C with 5% CO2 in Dulbecco’s modified Eagle’s medium containing 10% fetal bovine serum, 1% L-GlutaMAX^TM solution (Thermo Fisher Scientific), and 1% penicillin/streptomycin. When 80% confluence was achieved, cells were detached, counted, seeded in 96-well microplates at a density of 10,000 cells per well, and allowed to adhere for 24 h. Next, the mammalian cells were exposed to selected compounds at a range of 0.125 to 128 mg/L. After 24 h of exposure, the cell viability was measured with the PrestoBlue^TM cell viability reagent (Thermo Fisher Scientific), according to the manufacturer’s instructions. Experiments were performed twice in triplicate. The 50% cytotoxic concentration (CC50) of each compound was calculated by regression analysis using Microsoft Excel. Therapeutic index (TI) values were calculated as the ratio of the CC50 to the higher MIC observed for each compound [111].

[6] = Cytotoxicity, PrestoBlue cell viability assay; format: cell-based; conditions: human; HeLa cells, 24 h exposure; read-out: CC50 (50% cytotoxic concentration)
Procedure: as §1

[7] = ITC, 25 °C, pH 8, relative error 15%, read-out: Kd
[8] = four strains incl. CLR-, MTZ- and LVX-resistant, read-out: MIC against all H. pylori strains tested

Sequence of HsrA (O25684 entry or part of it): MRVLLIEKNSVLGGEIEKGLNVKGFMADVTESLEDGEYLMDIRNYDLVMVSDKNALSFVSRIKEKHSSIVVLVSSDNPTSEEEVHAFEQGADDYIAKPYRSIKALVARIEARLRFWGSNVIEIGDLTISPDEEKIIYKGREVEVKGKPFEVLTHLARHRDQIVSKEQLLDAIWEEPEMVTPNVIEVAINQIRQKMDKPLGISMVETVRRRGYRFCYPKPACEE

Compound	Inhibition of in vitro DNA binding activity of HsrA (EMSA) [1]	n (stoichiometry) ([2]; ITC, 25 °C, pH 8)	Kd [2, 7]	ΔG ([2]; ITC, 25 °C)	ΔH ([2]; ITC, 25 °C)	Exposure time after which 10^4 H. pylori cells were completely killed [3]	MIC [4, 8]	TI (CC50/MIC), therapeutic index [5]	CC50 at 24 h [6]	Kd [2]	Cytotoxicity at 8 mg/L ([5]; HeLa cells, 8 mg/L, 24 h)	Cell death ([5]; HeLa cells, 8 mg/L, 24 h)	Affinity to HsrA relative to ligand XII ([2]; ITC)	MIC ([4]; read-out: MIC against all H. pylori strains tested, four strains incl. CLR-, MTZ- and LVX-resistant)	Antimicrobial potency relative to ligand XII ([4]; same H. pylori strains)	Antimicrobial potency relative to metronidazole ([4]; same H. pylori strains)
N#C/C(=C\C=C\c1ccccc1)c1nc2ccccc2[nH]1 [Ligand XII]	noticeably inhibited	1.0	43 µM	–6.0 kcal/mol	0.8 kcal/mol	4 h	0.031 to 4 µg/mL (≈ 0.114 to 14.7 µM)	6.7	13.4 µg/mL (≈ 49.4 µM)	–	–	–	–	–	–	–
CSc1cccc(NC(=S)NCCNc2c([N+](=O)[O-])cc(C(F)(F)F)cc2[N+](=O)[O-])c1 [Ligand IV]	appreciably stronger; also recorded: noticeably inhibited	0.9	–	–7.4 kcal/mol	–1.6 kcal/mol	4 h	0.031 to 4 µg/mL (≈ 0.0652 to 8.41 µM)	–	135 µg/mL (≈ 284 µM)	3.9 µM	completely safe	–	–	–	–	–
OC1(C(F)(F)F)CC(c2ccc3c(c2)Nc2ccccc2S3)=NN1 (stereo not drawn) [Ligand VIII]	appreciably stronger; also recorded: noticeably inhibited	0.9	10 µM	–6.8 kcal/mol	0.8 kcal/mol	2 h	0.031 to 4 µg/mL (≈ 0.0882 to 11.4 µM)	3.2	6.5 µg/mL (≈ 18.5 µM)	–	–	68%	–	–	–	–
N#Cc1cnn(-c2ccc(C(F)(F)F)cc2[N+](=O)[O-])c1N [Ligand I]	noticeably inhibited	1.0	13 µM	–6.7 kcal/mol	–1.2 kcal/mol	8 h	0.031 to 4 µg/mL (≈ 0.104 to 13.5 µM)	–	119 µg/mL (≈ 401 µM)	–	completely safe	–	–	–	–	–
NC(=NOC(=O)Nc1ccc(Cl)cc1)c1csc([N+](=O)[O-])c1 [Ligand V, N′-{[(4-chloroanilino)carbonyl]}oxy-5-nitrothiophene-3-carboximidamide]	noticeably inhibited	1.0	13 µM	–6.7 kcal/mol	–1.9 kcal/mol	2 h	0.031 to 4 µg/mL (≈ 0.091 to 11.7 µM)	–	183 µg/mL (≈ 538 µM)	–	completely safe	–	> 3 fold	0.031 to 0.125 µg/mL (≈ 0.091 to 0.367 µM)	at least 4 fold	more than 10 fold
CSc1cccc(Nc2nc(C(C)(C)C)cs2)c1 [Ligand XI]	noticeably inhibited	1.1	49 µM	–5.9 kcal/mol	–3.1 kcal/mol	4 h	0.031 to 4 µg/mL (≈ 0.111 to 14.4 µM)	5.4	21.8 µg/mL (≈ 78.3 µM)	–	completely safe	–	–	–	–	–
